Structures can show the parent of a compound that is named as a salt.
Tests used:
[1] = Determination of hygroscopicity (water absorption in open weighing bottle, artificial climate chamber); type: physicochemical; details: 25±1° C., relative humidity 43.5±2%; for Water absorption, %: open weighing bottle, disodium salt
Method: 1. Take a dry stuffed glass weighing bottle (outer diameter 50 mm, height 15 mm) in the artificial climate chamber (set temperature is 25±1° C., relative humidity is 43.5±2%) and weight it (m1).
2. Take the appropriate amount of the crystalline form in the present invention, and place it in the abovementioned weighing bottle and lay it inside the weighing bottle. The thickness of the test sample is generally about 1 mm. Weight the sample (m2).
3. Uncover the weighing bottle and place it with the bottle cap under constant temperature and humidity (set temperature is 25±1° C., relative humidity is 43.5±2%).
4. Put the cap back on the weighing bottle before weighing, and then weight it (m3). The water absorption percentage for each time point is calculated by the formula=(m3−m2)/(m2−m1)×100%.

[2] = cited from earlier work

Compound: CCCCC(=O)N(Cc1ccc(-c2ccccc2-c2nnn[nH]2)cc1)[C@H](C(=O)O)C(C)C [Crystalline form B, valsartan disodium salt]
- Water absorption, % ([1]; 2 h, listed as B): 1.9%
- Water absorption, % ([1]; 4 h, listed as B): 2.3%
- Water absorption, % ([1]; 24 h, listed as B): 3.0%

Compound: CCCCC(=O)N(Cc1ccc(-c2ccccc2-c2nnn[nH]2)cc1)[C@H](C(=O)O)C(C)C [Crystalline form A, valsartan disodium salt]
- Water absorption, % ([1]; 2 h, listed as A): 1.6%
- water absorption ([1]; 3 hours, open container): 2.6%
- Water absorption, % ([1]; 4 h, listed as A): 2.0%
- Water absorption, % ([1]; 24 h, listed as A): 2.4%

Compound: CCCCC(=O)N(Cc1ccc(-c2ccccc2-c2nnn[nH]2)cc1)[C@H](C(=O)O)C(C)C [Crystalline form H, valsartan disodium salt]
- Water absorption, % ([1]; 2 h, listed as H): 2.0%
- Water absorption, % ([1]; 4 h, listed as H): 2.8%
- Water absorption, % ([1]; 24 h, listed as H): 4.0%

Compound: CCCCC(=O)N(Cc1ccc(-c2ccccc2-c2nnn[nH]2)cc1)[C@H](C(=O)O)C(C)C [Valsartan sodium salt]
- hygroscopicity (in words) ([2]; background statement): hygroscopic

Compound: CCCCC(=O)N(Cc1ccc(-c2ccccc2-c2nnn[nH]2)cc1)[C@H](C(=O)O)C(C)C [valsartan disodium salt]
- hygroscopicity ([2]; equilibrated in air, 5.36 mol H2O by elemental analysis (CN01813039.9)): up to 20%

Compound: CCCCC(=O)N(Cc1ccc(-c2ccccc2-c2nnn[nH]2)cc1)[C@H](C(=O)O)C(C)C [Crystalline form E, valsartan disodium salt]
- Water absorption, % ([1]; 2 h, listed as E): 2.1%
- Water absorption, % ([1]; 4 h, listed as E): 2.9%
- Water absorption, % ([1]; 24 h, listed as E): 3.6%

Compound: CCCCC(=O)N(Cc1ccc(-c2ccccc2-c2nnn[nH]2)cc1)[C@H](C(=O)O)C(C)C [Crystalline form D, valsartan disodium salt]
- Water absorption, % ([1]; 2 h, listed as D): 1.3%
- Water absorption, % ([1]; 4 h, listed as D): 1.9%
- Water absorption, % ([1]; 24 h, listed as D): 2.7%

Compound: CCCCC(=O)N(Cc1ccc(-c2ccccc2-c2nnn[nH]2)cc1)[C@H](C(=O)O)C(C)C [Crystalline form F, valsartan disodium salt]
- Water absorption, % ([1]; 2 h, listed as F): 1.7%
- Water absorption, % ([1]; 4 h, listed as F): 2.2%
- Water absorption, % ([1]; 24 h, listed as F): 2.8%

Compound: CCCCC(=O)N(Cc1ccc(-c2ccccc2-c2nnn[nH]2)cc1)[C@H](C(=O)O)C(C)C [Crystalline form G, valsartan disodium salt]
- Water absorption, % ([1]; 2 h, listed as G): 0.7%
- Water absorption, % ([1]; 4 h, listed as G): 1.3%
- Water absorption, % ([1]; 24 h, listed as G): 1.5%

Reference: patent US10745363B2 (NORATECH PHARMACEUTICALS, INC., priority 2016, dated 2020)
